The source of these data is patent US12202835B2, “Substituted aromatic ring-linked dioxinoquinazolines and dioxinoquinolines as kinase inhibitors” (BEIJING SCITECH-MQ PHARMACEUTICALS LIMITED, priority 2018, dated 2025).

The target in test [1] is c-MET kinase (Homo sapiens (Human), UniProt P08581). The experiment in a line: Assay of small molecular compounds for inhibiting the activity of c-MET kinase (LANCE TR-FRET). The test is classed as biochemical. The settings on record: read-out: CMET IC50. The method in brief: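 LANCE TR-FRET assay with c-MET at 1 nM final after a 5 min room-temperature preincubation with compound (11-point, 3-fold series, 2500–0.042 nM final, 4% DMSO). ULight-JAK-1 (Tyr1023) peptide (100 nM final) and ATP (10 μM final) reacted 60 min in the dark. Inhibition was taken relative to controls, then IC50 fitted.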

The target of test [2] is MER kinase (Homo sapiens (Human), UniProt Q12866). The experiment in a line: Assay of small molecular compounds for inhibiting the activity of MER kinase (LANCE TR-FRET). The format is biochemical. The method in brief: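 MER kinase preincubated 5 min at RT with compound (11 points, 0.042-2500 nM final), then ULight-poly GT and ATP added (4× stocks 200 nM and 20 μM) for 60 min at RT, 1% DMSO. Phosphorylation detected by LANCE TR-FRET; IC50 from % inhibition versus controls.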
On the technique in general: In TR-FRET formats the signal depends on donor and acceptor labels being close together.

Structures are written as SMILES.

Chain of MER kinase (Q12866 21-999): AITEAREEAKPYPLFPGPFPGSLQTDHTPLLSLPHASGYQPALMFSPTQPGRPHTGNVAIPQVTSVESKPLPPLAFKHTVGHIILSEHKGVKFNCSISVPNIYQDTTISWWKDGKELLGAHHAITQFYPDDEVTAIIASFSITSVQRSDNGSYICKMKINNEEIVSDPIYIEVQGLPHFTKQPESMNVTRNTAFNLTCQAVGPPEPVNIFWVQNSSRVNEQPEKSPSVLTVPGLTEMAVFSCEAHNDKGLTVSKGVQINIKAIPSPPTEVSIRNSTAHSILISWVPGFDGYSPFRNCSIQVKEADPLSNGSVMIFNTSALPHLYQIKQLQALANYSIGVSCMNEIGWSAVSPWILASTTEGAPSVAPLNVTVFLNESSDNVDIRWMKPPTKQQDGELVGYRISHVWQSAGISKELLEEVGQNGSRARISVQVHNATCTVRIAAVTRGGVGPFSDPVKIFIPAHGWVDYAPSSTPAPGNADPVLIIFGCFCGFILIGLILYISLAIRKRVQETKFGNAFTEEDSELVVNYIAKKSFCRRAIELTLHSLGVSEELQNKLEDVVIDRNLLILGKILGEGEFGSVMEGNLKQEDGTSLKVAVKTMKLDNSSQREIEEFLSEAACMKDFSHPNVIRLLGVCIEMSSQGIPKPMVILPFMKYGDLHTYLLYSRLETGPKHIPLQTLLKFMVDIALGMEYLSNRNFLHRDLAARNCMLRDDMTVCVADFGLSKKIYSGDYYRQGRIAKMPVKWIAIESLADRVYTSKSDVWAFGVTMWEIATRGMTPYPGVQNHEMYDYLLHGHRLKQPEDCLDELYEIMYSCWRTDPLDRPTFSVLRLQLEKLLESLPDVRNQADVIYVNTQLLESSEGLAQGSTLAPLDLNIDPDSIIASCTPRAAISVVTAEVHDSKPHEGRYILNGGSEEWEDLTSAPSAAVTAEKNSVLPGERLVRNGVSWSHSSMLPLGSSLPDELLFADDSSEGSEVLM
Chain of c-MET kinase (P08581 25-1390): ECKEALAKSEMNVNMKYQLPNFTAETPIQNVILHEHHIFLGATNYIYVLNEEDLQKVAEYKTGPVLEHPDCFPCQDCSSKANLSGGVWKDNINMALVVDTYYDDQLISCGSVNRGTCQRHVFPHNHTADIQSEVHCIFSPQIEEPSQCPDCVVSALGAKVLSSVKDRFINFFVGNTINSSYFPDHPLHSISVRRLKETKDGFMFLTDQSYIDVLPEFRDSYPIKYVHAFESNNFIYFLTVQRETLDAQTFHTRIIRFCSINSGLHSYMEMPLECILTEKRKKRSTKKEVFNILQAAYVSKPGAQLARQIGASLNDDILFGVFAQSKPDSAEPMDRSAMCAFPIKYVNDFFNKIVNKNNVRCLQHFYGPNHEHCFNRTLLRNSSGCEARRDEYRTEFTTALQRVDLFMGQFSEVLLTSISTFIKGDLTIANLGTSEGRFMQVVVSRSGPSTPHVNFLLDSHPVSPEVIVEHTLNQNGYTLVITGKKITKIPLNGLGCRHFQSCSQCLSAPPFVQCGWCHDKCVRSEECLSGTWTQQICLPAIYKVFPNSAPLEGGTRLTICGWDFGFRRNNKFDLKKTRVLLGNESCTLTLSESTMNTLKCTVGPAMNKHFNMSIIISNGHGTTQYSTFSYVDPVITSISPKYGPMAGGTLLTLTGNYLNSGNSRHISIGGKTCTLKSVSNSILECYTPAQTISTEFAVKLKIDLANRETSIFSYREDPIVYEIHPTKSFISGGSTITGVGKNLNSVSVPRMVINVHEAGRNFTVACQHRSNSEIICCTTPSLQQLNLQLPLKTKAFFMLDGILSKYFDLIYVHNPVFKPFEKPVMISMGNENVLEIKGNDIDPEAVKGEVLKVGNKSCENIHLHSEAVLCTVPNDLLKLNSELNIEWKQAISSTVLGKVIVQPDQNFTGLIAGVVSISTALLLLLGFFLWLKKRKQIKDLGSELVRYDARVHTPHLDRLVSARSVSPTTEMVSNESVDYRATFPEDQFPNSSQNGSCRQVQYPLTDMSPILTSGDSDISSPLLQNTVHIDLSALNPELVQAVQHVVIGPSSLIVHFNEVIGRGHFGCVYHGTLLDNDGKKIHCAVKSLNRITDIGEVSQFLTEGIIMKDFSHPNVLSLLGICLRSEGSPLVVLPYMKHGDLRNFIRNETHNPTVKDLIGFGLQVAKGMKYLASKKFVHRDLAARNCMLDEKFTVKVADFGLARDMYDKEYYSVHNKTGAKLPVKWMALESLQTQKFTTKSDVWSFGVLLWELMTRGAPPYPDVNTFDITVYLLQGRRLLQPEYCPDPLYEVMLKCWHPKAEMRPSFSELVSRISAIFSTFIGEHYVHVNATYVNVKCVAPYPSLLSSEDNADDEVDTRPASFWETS

By IC50 is commonly meant the point on the concentration scale where inhibition reaches its midpoint. Regarding `CCOc1ccn(-c2ccc(F)cc2)c(=O)c1C(=O)Nc1ccc(Oc2ncnc3cc(OCCCN4CCOCC4)c4c(c23)OCCO4)c(F)c1` [Example 6, N-(3-fluoro-4-((5-(3-morpholinopropoxy)-2,3-dihydro-[1,4]dioxino[2,3-f]quinazolin-10-yl)oxy)phenyl)-1-(4-fluorophenyl)-4-ethoxy-2-oxo-1,2-dihydropyridine-3-carboxamide], the IC50 in test [1] and in test [2] was at most 50 nM each time. As to `COc1cc2ncnc(Oc3ccc(NC(=O)c4cn(C)c(=O)n(-c5ccc(F)cc5)c4=O)cc3F)c2c2c1OCCO2` [Example 29, N-(3-fluoro-4-((5-methoxy-2,3-dihydro-[1,4]dioxino[2,3-f]quinazolin-10-yl)oxy)phenyl)-3-(4-fluorophenyl)-1-methyl-2,4-dioxo-1,2,3,4-tetrahydropyrimidine-5-carboxamide], the IC50 in test [1] and in test [2] was at most 50 nM each time.

For `Cn1cc(C(=O)Nc2ccc(Oc3ncnc4cc(OCCCN5CCOCC5)c5c(c34)OCCO5)c(F)c2)c(=O)n(-c2ccc(F)cc2)c1=O` [Example 30, N-(3-fluoro-4-((5-(3-morpholinopropoxy)-2,3-dihydro-[1,4]dioxino[2,3-f]quinazolin-10-yl)oxy)phenyl)-3-(4-fluorophenyl)-1-methyl-2,4-dioxo-1,2,3,4-tetrahydropyrimidine-5-carboxamide], the IC50 in test [1] and in test [2] was at most 50 nM in each case. On to `CC(C)n1cc(C(=O)Nc2ccc(Oc3ccnc4cc(OCCCN5CCOCC5)c5c(c34)OCCO5)c(Cl)c2)c(=O)n(-c2ccc(F)cc2)c1=O` [Example 97, N-(3-chloro-4-((5-(3-morpholinopropoxy)-2,3-dihydro-[1,4]dioxino[2,3-f]quinolin-10-yl)oxy)phenyl)-3-(4-fluorophenyl)-1-isopropyl-2,4-dioxo-1,2,3,4-tetrahydropyrimidine-5-carboxamide], for which the IC50 was 50 to 500 nM in test [1] and at most 50 nM in test [2]. Regarding `COc1cc2nccc(Oc3ccc(NC(=O)c4cn(C)c(=O)n(-c5ccc(F)cc5)c4=O)c(Cl)c3)c2c2c1OCCO2` [Example 125, N-(2-chloro-4-((5-methoxy-2,3-dihydro-[1,4]dioxino[2,3-f]quinolin-10-yl)oxy)phenyl)-3-(4-fluorophenyl)-1-methyl-2,4-dioxo-1,2,3,4-tetrahydropyrimidine-5-carboxamide], the half-maximal inhibitory concentration (IC50) in test [1] and in test [2] was 50 to 500 nM throughout. Regarding `CCOc1cc2nccc(Oc3ccc(NC(=O)c4cccn(-c5ccc(F)cc5)c4=O)c(Cl)c3)c2c2c1OCCO2` [Example 127, N-(2-chloro-4-((5-ethoxy-2,3-dihydro-[1,4]dioxino[2,3-f]quinolin-10-yl)oxy)phenyl)-1-(4-fluorophenyl)-2-oxo-1,2-dihydropyridine-3-carboxamide], the 50% inhibitory concentration (IC50) in test [1] and in test [2] was at most 50 nM throughout. As for `CCOc1cc2nccc(Oc3ccc(NC(=O)c4c(OC)ccn(-c5ccc(F)cc5)c4=O)c(Cl)c3)c2c2c1OCCO2` [Example 128, N-(2-chloro-4-((5-ethoxy-2,3-dihydro-[1,4]dioxino[2,3-f]quinolin-10-yl)oxy)phenyl)-1-(4-fluorophenyl)-4-methoxy-2-oxo-1,2-dihydropyridine-3-carboxamide], the IC50 in test [1] and in test [2] was at most 50 nM throughout. In the case of `CCOc1cc2nccc(Oc3ccc(NC(=O)c4cn(C)c(=O)n(-c5ccc(F)cc5)c4=O)c(Cl)c3)c2c2c1OCCO2` [Example 129, N-(2-chloro-4-((5-ethoxy-2,3-dihydro-[1,4]dioxino[2,3-f]quinolin-10-yl)oxy)phenyl)-3-(4-fluorophenyl)-1-methyl-2,4-dioxo-1,2,3,4-tetrahydropyrimidine-5-carboxamide], the IC50 in test [1] and in test [2] was at most 50 nM in each case. Turning to `CCOc1cc2nccc(Oc3ccc(NC(=O)c4c(OCC)ccn(-c5ccc(F)cc5)c4=O)c(Cl)c3)c2c2c1OCCO2` [Example 130, N-(2-chloro-4-((5-ethoxy-2,3-dihydro-[1,4]dioxino[2,3-f]quinolin-10-yl)oxy)phenyl)-1-(4-fluorophenyl)-4-ethoxy-2-oxo-1,2-dihydropyridine-3-carboxamide], the IC50 in test [1] and in test [2] was at most 50 nM each time.

Turning to `O=C(Nc1ccc(Oc2ccnc3cc(OCCCN4CCCCC4)c4c(c23)OCCO4)cc1Cl)c1cccn(-c2ccc(F)cc2)c1=O` [Example 135, N-(2-chloro-4-((5-((3-piperidin-1-yl)propoxy)-2,3-dihydro-[1,4]dioxino[2,3-f]quinolin-10-yl)oxy)phenyl)-1-(4-fluorophenyl)-2-oxo-1,2-dihydropyridine-3-carboxamide], the IC50 in test [1] and in test [2] was at most 50 nM throughout. In the case of `COc1ccn(-c2ccc(F)cc2)c(=O)c1C(=O)Nc1ccc(Oc2ccnc3cc(OCCCN4CCCCC4)c4c(c23)OCCO4)cc1Cl` [Example 136, N-(2-chloro-4-((5-((3-piperidin-1-yl)propoxy)-2,3-dihydro-[1,4]dioxino[2,3-f]quinolin-10-yl)oxy)phenyl)-1-(4-fluorophenyl)-4-methoxy-2-oxo-1,2-dihydropyridine-3-carboxamide], the half-maximal inhibitory concentration (IC50) in test [1] and in test [2] was at most 50 nM each time.

Regarding `Cn1cc(C(=O)Nc2ccc(Oc3ccnc4cc(OCCCN5CCCCC5)c5c(c34)OCCO5)cc2Cl)c(=O)n(-c2ccc(F)cc2)c1=O` [Example 137, N-(2-chloro-4-((5-((3-piperidin-1-yl)propoxy)-2,3-dihydro-[1,4]dioxino[2,3-f]quinolin-10-yl)oxy)phenyl)-3-(4-fluorophenyl)-1-methyl-2,4-dioxo-1,2,3,4-tetrahydropyrimidine-5-carboxamide], the IC50 in test [1] and in test [2] was at most 50 nM in each case.

As to `CCOc1ccn(-c2ccc(F)cc2)c(=O)c1C(=O)Nc1ccc(Oc2ccnc3cc(OCCCN4CCCCC4)c4c(c23)OCCO4)cc1Cl` [Example 138, N-(2-chloro-4-((5-((3-piperidin-1-yl)propoxy)-2,3-dihydro-[1,4]dioxino[2,3-f]quinolin-10-yl)oxy)phenyl)-1-(4-fluorophenyl)-4-ethoxy-2-oxo-1,2-dihydropyridine-3-carboxamide], the IC50 in test [1] and in test [2] was at most 50 nM throughout.

For `CC(C)(O)COc1cc2nccc(Oc3ccc(NC(=O)c4cccn(-c5ccc(F)cc5)c4=O)c(Cl)c3)c2c2c1OCCO2` [Example 139, N-(2-chloro-4-((5-(2-hydroxy-2-methylpropoxy)-2,3-dihydro-[1,4]dioxino[2,3-f]quinolin-10-yl)oxy)phenyl)-1-(4-fluorophenyl)-2-oxo-1,2-dihydropyridine-3-carboxamide], the IC50 in test [1] and in test [2] was at most 50 nM each time. Turning to `COc1ccn(-c2ccc(F)cc2)c(=O)c1C(=O)Nc1ccc(Oc2ccnc3cc(OCC(C)(C)O)c4c(c23)OCCO4)cc1Cl` [Example 140, N-(2-chloro-4-((5-(2-hydroxy-2-methylpropoxy)-2,3-dihydro-[1,4]dioxino[2,3-f]quinolin-10-yl)oxy)phenyl)-1-(4-fluorophenyl)-4-methoxy-2-oxo-1,2-dihydropyridine-3-carboxamide], the IC50 in test [1] and in test [2] was at most 50 nM in each case. Regarding `O=C(Nc1ccc(Oc2ccnc3cc(OCCCN4CCOCC4)c4c(c23)OCCO4)cc1Cl)c1cccn(-c2ccc(F)cc2)c1=O` [Example 143, N-(2-chloro-4-((5-(3-morpholinopropoxy)-2,3-dihydro-[1,4]dioxino[2,3-f]quinolin-10-yl)oxy)phenyl)-1-(4-fluorophenyl)-2-oxo-1,2-dihydropyridine-3-carboxamide], the IC50 in test [1] and in test [2] was at most 50 nM each time.

Regarding `Cn1cc(C(=O)Nc2ccc(Oc3ccnc4ccc5c(c34)OCCO5)cc2F)c(=O)n(-c2ccc(F)cc2)c1=O` [Example 162, N-(4-((2,3-dihydro-[1,4]dioxino[2,3-f]quinolin-10-yl)oxy)-2-fluorophenyl)-3-(4-fluorophenyl)-1-methyl-2,4-dioxo-1,2,3,4-tetrahydropyrimidine-5-carboxamide], the figures for the half-inhibitory concentration (IC50) in test [1] and in test [2] were 500 to 5000 nM and 50 to 500 nM, respectively. As to `O=C(Nc1ccc(Oc2ccnc3ccc4c(c23)OCCO4)c(F)c1)c1cccn(-c2ccc(F)cc2)c1=O` [Example 169, N-(4-((2,3-dihydro-[1,4]dioxino[2,3-f]quinolin-10-yl)oxy)-3-fluorophenyl)-1-(4-fluorophenyl)-2-oxo-1,2-dihydropyridine-3-carboxamide], the 50% inhibitory concentration (IC50) in test [1] and in test [2] was at most 50 nM throughout. As for `O=C(Nc1ccc(Oc2ccnc3ccc4c(c23)OCCO4)cc1F)c1cccn(-c2ccc(F)cc2)c1=O` [Example 170, N-(4-((2,3-dihydro-[1,4]dioxino[2,3-f]quinolin-10-yl)oxy)-2-fluorophenyl)-1-(4-fluorophenyl)-2-oxo-1,2-dihydropyridine-3-carboxamide], the IC50 is 50 to 500 nM in test [1] and at most 50 nM in test [2]. `CCOc1ccn(-c2ccc(F)cc2)c(=O)c1C(=O)Nc1ccc(Oc2ccnc3ccc4c(c23)OCCO4)cc1F` [Example 171, N-(4-((2,3-dihydro-[1,4]dioxino[2,3-f]quinolin-10-yl)oxy)-2-fluorophenyl)-1-(4-fluorophenyl)-4-ethoxy-2-oxo-1,2-dihydropyridine-3-carboxamide]: the half-maximal inhibitory concentration (IC50) in test [1] and in test [2] was at most 50 nM in each case.

As for `CCn1cc(C(=O)Nc2cc(F)c(Oc3ccnc4cc(OCCOC)c5c(c34)OCCO5)cc2C)c(=O)n(-c2ccc(F)cc2)c1=O` [Example 180, N-(5-fluoro-4-((5-(2-methoxyethoxy)-2,3-dihydro-[1,4]dioxino[2,3-f]quinolin-10-yl)oxy)-2-methylphenyl)-3-(4-fluorophenyl)-1-ethyl-2,4-dioxo-1,2,3,4-tetrahydropyrimidine-5-carboxamide], the IC50 in test [1] is at most 50 nM.
